Experiment [1] deals with JNK. The note with it: JBDs; Dickens et al. Science 277: 693 (1997); cited from earlier work.
Experiment [2] concerns TC-3 cell cultures. The experiment can be described thus: Cellular import and intracellular persistence of fluorescein-labeled peptides in TC-3 cells. Type of experiment: cell-based. The following applies: 1 μM. As for the experimental part:
The ability of the L- and D-enantiomeric forms of TAT and TAT-IB1(s) peptides (“TAT-IB peptides”) to enter cells was evaluated. L-TAT, D-TAT, L-TAT-IB1(s), and D-TAT-IB1(s) peptides [SEQ ID NOs: 5, 6, 9 and 12, respectively] were labeled by N-terminal addition of a glycine residue conjugated to fluorescein. Labeled peptides (1 μM) were added to TC-3 cell cultures, which were maintained as described in Example 3. At predetermined times cells were washed with PBS and fixed for five minutes in ice-cold methanol-acetone (1:1) before being examined under a fluorescence microscope. Fluorescein-labeled BSA (1 μM, 12 moles/mole BSA) was used as a control.
Little to no signal was present at 48 hours.

Experiment [3] deals with TC-3 cells. The experiment can be described thus: IL-1 induced pancreatic beta-cell death in TC-3 cells treated with peptides. The format is cell-based. The following applies: one single addition 1 μM, IL-1 10 ng/ml. As for the experimental part:
Inhibition of IL-1 induced pancreatic beta-cell death by the D-TAT-IB1(s) peptide was analyzed. TC-3 cells were incubated as described above for 30 minutes with one single addition of the indicated peptides (1, μM), then IL-1 (10 ng/ml) was added.
Apoptotic cells were then counted after two days of incubation with IL-1 by use of Propidium Iodide and Hoechst 33342 nuclear staining. A minimum of 1,000 cells were counted for each experiment.
Long term inhibition of IL-1P induced cell-death by the D-TAT-IB1 peptide was also analyzed. TC-3 cells were incubated as above for 30 minutes with one single addition of the indicated peptides (1 μM), then IL-1 (10 ng/ml) was added, followed by addition of the cytokine every two days. Apoptotic cells were then counted after 15 days of incubation with IL-1 by use of propidium iodide and Hoechst 33342 nuclear staining. […] A minimum of 1.000 cells were counted for each experiment.

In experiment [4] the test system is TNBS-induced colitis. The experiment is described as follows: TNBS-induced colitis (IBD study) in BALB/c mice, Example 12. The format is in vivo. How it is done:
b) Constitution of test groups and dose levels • The table below lists the experimental groups comprising the study.
c) Test Procedures • Colitis was induced by administration of TNBS […], as a single or repeated daily doses (see above).
d) Observations and Examinations • i) Clinical signs • Throughout the duration of the above experiment, careful clinical examinations were carried out and recorded. Observations included changes external appearance, e.g. of the skin, fur, eyes, mucous membranes, occurrence of secretions and excretions (e.g. diarrhea), and autonomic activity. Changes in gait, posture and response to handling, as well as the presence of bizarre behavior, tremors, convulsions, sleep and coma were also noted. • ii) Body weights • Determination of individual body weight of animals was made on a daily basis. • iii) Clinical assessment of colitis • Body weight, stool consistency and bleeding per rectum were all recorded daily and served as the parameters of disease severity score:
• iv) Gross pathology of the colon • On the last day of the experiment, animals were euthanized and the colon was removed for gross pathology evaluation according to the following score: […]

In the case of “NH2-PGTGCGDTYRPKRPTTLNLFPQVPRSQDT-COOH (H-PGTGCGDTYRPKRPTTLNLFPQVPRSQDT-OH) [IB1-long]”, the “efficiency in binding JNK relative to c-Jun or ATF2” value in experiment [1] is “approximately 100 fold”. Turning to “Fluorescein-labeled BSA: Fluorescein-labeled BSA (1 μM, 12 moles/mole BSA) used as a control [reference compound]”, the entry into cells result in experiment [2] is recorded as “did not enter the cells”. As to “NH2-TDQSRPVQPFLNLTTPRKPRYTDPPRRRQRRKKRG-COOH (HELM PEPTIDE1{[dT].[dD].[dQ].[dS].[dR].[dP].[dV].[dQ].[dP].[dF].[dL].[dN].[dL].[dT].[dT].[dP].[dR].[dK].[dP].[dR].[dY].[dT].[dD].[dP].[dP].[dR].[dR].[dR].[dQ].[dR].[dR].[dK].[dK].[dR].G}$$$$V2.0; SMILES CC(C)C[C@@H](NC(=O)[C@@H](Cc1ccccc1)NC(=O)[C@H]1CCCN1C(=O)[C@@H](CCC(N)=O)NC(=O)[C@H](NC(=O)[C@H]1CCCN1C(=O)[C@@H](CCCNC(=N)N)NC(=O)[C@@H](CO)NC(=O)[C@@H](CCC(N)=O)NC(=O)[C@@H](CC(=O)O)NC(=O)[C@H](N)[C@H](C)O)C(C)C)C(=O)N[C@H](CC(N)=O)C(=O)N[C@H](CC(C)C)C(=O)N[C@@H](C(=O)N[C@@H](C(=O)N1CCC[C@@H]1C(=O)N[C@H](CCCNC(=N)N)C(=O)N[C@H](CCCCN)C(=O)N1CCC[C@@H]1C(=O)N[C@H](CCCNC(=N)N)C(=O)N[C@H](Cc1ccc(O)cc1)C(=O)N[C@@H](C(=O)N[C@H](CC(=O)O)C(=O)N1CCC[C@@H]1C(=O)N1CCC[C@@H]1C(=O)N[C@H](CCCNC(=N)N)C(=O)N[C@H](CCCNC(=N)N)C(=O)N[C@H](CCCNC(=N)N)C(=O)N[C@H](CCC(N)=O)C(=O)N[C@H](CCCNC(=N)N)C(=O)N[C@H](CCCNC(=N)N)C(=O)N[C@H](CCCCN)C(=O)N[C@H](CCCCN)C(=O)N[C@H](CCCNC(=N)N)C(=O)NCC(=O)O)[C@H](C)O)[C@H](C)O)[C@H](C)O) [D-TAT-IB1]”, the “IL-1 induced apoptosis after two days” value in experiment [3] was “decreased IL-1 induced apoptosis to a similar extent as L-TAT-IB peptides”.

On to “NH2-IPSPSVEEPHKHRPTTLRLTTLGAQDS-COOH (H-IPSPSVEEPHKHRPTTLRLTTLGAQDS-OH) [IB2-long]”, for which the “efficiency in binding JNK relative to c-Jun or ATF2” value in experiment [1] is “approximately 100 fold”. In the case of `O=C(O)c1cc(/N=N/c2ccc(S(=O)(=O)Nc3ccccn3)cc2)ccc1O` [Sulfasalazine, reference compound], the clinical score result in experiment [4] (XG-102 any dose, route or schedule, Sulfasalazine 10 mg/kg PO daily) was “reduction in the clinical score”. In addition, the “gross pathology score of the colon” value in experiment [4] (end of study, 10 mg/kg PO daily) is reported as “effective in reducing the gross pathology completely”. Consider “NH2-GRKKRRQRRR-COOH (H-GRKKRRQRRR-OH) [L-TAT]”, for which the entry into cells result in experiment [2] is “efficiently and rapidly (less than five minutes) entered cells”. As to “NH2-RRRQRRKKRG-COOH (D-amino acids; Description of sequence Peptide D-TAT (see Table 1))”, the entry into cells entry in experiment [2] was “efficiently and rapidly (less than five minutes) entered cells”.

Source of the values: US9180159B2, “Use of cell-permeable peptide inhibitors of the JNK signal transduction pathway for the treatment of chronic or non-chronic inflammatory digestive diseases” (Xigen Inflammation Ltd., priority 2008, dated 2015).
